Experimental data published in US20090143279A1 (priority 2007, published 2009).
Read-outs that look alike come from different tables or passages of the source.

Tests used:
mtOXPHOS transcripts = format: cell-based, mouse; conditions: for mitoOX (composite Z-score): normalized score vs mock-treated (DMSO) wells
nuOXPHOS transcripts = format: cell-based, mouse; conditions: for nucOX (composite Z-score): normalized score vs mock-treated (DMSO) wells
reactive oxygen species = format: cell-based, mouse; conditions: for ROS (composite Z-score): normalized score vs mock-treated (DMSO) wells
OXPHOS gene expression = format: cell-based, mouse; conditions: for GE-HTS (composite Z-score): normalized score vs mock-treated (DMSO) wells
cytochrome c = format: cell-based, mouse; conditions: for cyt c (composite Z-score): normalized score vs mock-treated (DMSO) wells
[1] = test system: cellular dehydrogenase activity; conditions: for MTT (composite Z-score): normalized score vs mock-treated (DMSO) wells
[2] = test system: mitochondrial membrane potential; format: cell-based, mouse; conditions: for ΔΨm (composite Z-score): normalized score vs mock-treated (DMSO) wells
C2C12 myotubes = conditions: for Viability (composite Z-score): normalized score vs mock-treated (DMSO) wells
[3] = composite Z-score vs DMSO, Conc 20 μM
[4] = 13.14 μM, composite Z-score vs DMSO
[5] = 20 μM, composite Z-score vs DMSO
[6] = Table 4, C2C12 myotubes, 48 h, composite Z-score
[7] = normalized composite Z-score vs mock-treated (DMSO) wells, Conc 20 μM

| Structure (SMILES) | mitoOX (mtOXPHOS transcripts; [3]) | nucOX (nuOXPHOS transcripts; [3]) | ROS (reactive oxygen species; [3]) | GE-HTS (OXPHOS gene expression; [3]) | cyt c (cytochrome c; [3]) | MTT [1, 3] | ΔΨm [2, 3] | Viability (C2C12 myotubes; [3]) | mitoOX (composite Z-score) (mtOXPHOS transcripts; Conc 20 μM) | nucOX (composite Z-score) (nuOXPHOS transcripts; Conc 20 μM) | ROS (composite Z-score) (reactive oxygen species; Conc 20 μM) | GE-HTS (composite Z-score) (OXPHOS gene expression; Conc 20 μM) | cyt c (composite Z-score) (cytochrome c; Conc 20 μM) | MTT (composite Z-score) ([1]; Conc 20 μM) | ΔΨm (composite Z-score) ([2]; Conc 20 μM) | Viability (composite Z-score) (C2C12 myotubes; Conc 20 μM) | other results |
| --- | --- | --- | --- | --- | --- | --- | --- | --- | --- | --- | --- | --- | --- | --- | --- | --- | --- |
| NCCc1ccc(S(=O)(=O)F)cc1 [4-aminoethylbenzenesulfonyl fluoride] | 0.018 | −0.045 | 1.081 | −0.016 | −0.485 | −1.406 | −0.356 | −0.304 |  |  |  |  |  |  |  |  |  |
| CC(=O)O[C@@H]1CC2C(C)(C)C(=O)C3OC3[C@]2(C)C2CC[C@@]3(C)[C@H](c4ccoc4)OC(=O)C4OC43[C@@]21C (some centres unmarked) [epoxygedunin] |  |  |  |  |  |  |  |  | −1.005 | −1.130 | 0.409 | −1.146 | 0.248 | −1.657 | 0.274 | 0.052 |  |
| O=C(O)CCCc1ccc(N(CCCl)CCCl)cc1 [chlorambucil] |  |  |  |  |  |  |  |  |  |  |  |  |  |  |  |  | mitoOX (mtOXPHOS transcripts; [4]): 0.398; mitoOX (mtOXPHOS transcripts; [5]): 1.273; nucOX (nuOXPHOS transcripts; [4]): 0.147; nucOX (nuOXPHOS transcripts; [5]): 0.360; ROS (reactive oxygen species; [4]): 0.056; ROS (reactive oxygen species; [5]): 0.165; GE-HTS (OXPHOS gene expression; [4]): 0.249; GE-HTS (OXPHOS gene expression; [5]): 0.725; cyt c (cytochrome c; [4]): 0.035; cyt c (cytochrome c; [5]): −0.955; MTT [1, 4]: −0.069; MTT [1, 5]: −1.519; ΔΨm [2, 4]: 0.199; ΔΨm [2, 5]: −0.826; Viability (C2C12 myotubes; [4]): −0.507; Viability (C2C12 myotubes; [5]): −0.007 |
| CC(=O)O[C@H]1CC[C@@]2(C)[C@H](CC[C@@H]3[C@@H]2CC[C@]2(C)[C@@H](C4=CC(=O)OC4)[C@@H](OC(C)=O)C[C@]32O)C1 [gitoxigenin diacetate] | −0.322 | −0.649 | 0.508 | −0.594 | 0.684 | −1.077 | −0.792 | 0.187 |  |  |  |  |  |  |  |  |  |
| CC(=O)N[C@@H](CC(=O)O)C(=O)O [N-acetylaspartic acid] |  |  |  |  |  |  |  |  | −1.046 | −0.436 | 0.309 | −0.670 | 0.753 | −0.456 | −0.663 | −0.266 |  |
| COc1cc2c(cc1OC)[C@@H]1C(=O)c3c(O)cc4c(c3O[C@@H]1CO2)C=CC(C)(C)O4 [alpha-toxicarol, reference compound] | −0.345 | 0.124 | 0.101 | −0.046 | −2.637 | −1.982 | 0.820 | 0.304 |  |  |  |  |  |  |  |  | ROS (reactive oxygen species; [6]): 0.101; MTT [1, 6]: −1.982; ΔΨm ([2]; Table 4, C2C12 myotubes, 48 h, JC-1, composite Z-score): 0.820; Viability (C2C12 myotubes; [6]): 0.304 |
| COc1ccc2c(c1O)-c1c(OC)c(OC)cc3c1[C@H](C2)N(C)CC3 [isocorydine] |  |  |  |  |  |  |  |  | −0.322 | −0.463 | −0.096 | −0.462 | 0.355 | −1.215 | −0.017 | 1.230 | mitoOX (composite Z-score) (mtOXPHOS transcripts; Conc 11.72 μM): −0.664; nucOX (composite Z-score) (nuOXPHOS transcripts; Conc 11.72 μM): 0.451; ROS (composite Z-score) (reactive oxygen species; Conc 11.72 μM): 1.214; GE-HTS (composite Z-score) (OXPHOS gene expression; Conc 11.72 μM): 0.084; cyt c (composite Z-score) (cytochrome c; Conc 11.72 μM): 0.632; MTT (composite Z-score) ([1]; Conc 11.72 μM): −1.041; ΔΨm (composite Z-score) ([2]; Conc 11.72 μM): −1.052; Viability (composite Z-score) (C2C12 myotubes; Conc 11.72 μM): −1.678 |
| CC(C)=CCC/C(C)=C/CC/C(C)=C/CO [farnesol] | −0.401 | 0.106 | 0.550 | −0.066 | −0.437 | −1.554 | −0.153 | −1.327 |  |  |  |  |  |  |  |  |  |
| COc1cc(O)c2c(=O)cc(-c3ccc(O)cc3)oc2c1 [genkwanin] |  |  |  |  |  |  |  |  | 0.389 | 0.407 | 3.337 | 0.425 | −0.037 | −2.090 | −0.491 | −0.323 |  |
| CC(=O)OC1CCC23CC1(C)CCC2C(C)(C)CC3OC(C)=O (centres unmarked) [clovanediol diacetate] |  |  |  |  |  |  |  |  |  |  |  |  |  |  |  |  | mitoOX (mtOXPHOS transcripts; [7]): −0.026; nucOX (nuOXPHOS transcripts; [7]): 0.007; ROS (reactive oxygen species; [7]): −0.318; GE-HTS (OXPHOS gene expression; [7]): −0.020; cyt c (cytochrome c; [7]): 0.384; MTT [1, 7]: −0.708; ΔΨm [2, 7]: −0.599; Viability (C2C12 myotubes; [7]): −0.119 |
| C[N+](C)(C)CC(=O)O [betaine] |  |  |  |  |  |  |  |  |  |  |  |  |  |  |  |  | mitoOX (mtOXPHOS transcripts): 0.604; nucOX (nuOXPHOS transcripts): 0.354; ROS (reactive oxygen species): −0.348; GE-HTS (OXPHOS gene expression): 0.478; cyt c (cytochrome c): −0.998; MTT [1]: 1.036; ΔΨm [2]: 0.345; Viability (C2C12 myotubes): 0.548 |
| CC[C@H](CC[C@@H](C)[C@H]1CC[C@H]2[C@@H]3CC=C4C[C@@H](OC(C)=O)CC[C@]4(C)[C@H]3CC[C@]12C)C(C)C [sitosteryl acetate] |  |  |  |  |  |  |  |  |  |  |  |  |  |  |  |  | mitoOX (mtOXPHOS transcripts; [7]): 0.180; nucOX (nuOXPHOS transcripts; [7]): −0.389; ROS (reactive oxygen species; [7]): 0.930; GE-HTS (OXPHOS gene expression; [7]): −0.233; cyt c (cytochrome c; [7]): −0.443; MTT [1, 7]: −0.775; ΔΨm [2, 7]: −0.192; Viability (C2C12 myotubes; [7]): −0.827 |
